Experimental data from patent US8758816B2, “Compositions comprising azelastine and methods of use thereof” (priority 2004, dated 2014).
Where a name gives a salt, the structure may show the parent alone.

System: patients with seasonal allergic rhinitis (SAR)
Assay: MP 428 study: individual symptom severity scores (runny nose, itchy nose, sneezing, congestion; 0-3 scale)
Assay type: in vivo, human
Conditions: Intent-to-Treat Population
Method: A two-week, randomized, double-blind study, which evaluated the effects of the co-administration of ASTELIN® (azelastine hydrochloride (HCl)) and FLONASE® (fluticasone propionate) compared to either product alone in patients with seasonal allergic rhinitis (SAR) was conducted during the 2006 Texas mountain cedar season. After a 5-day placebo lead-in period, 151 patients with moderate-to-severe allergic rhinitis symptoms were randomized to either: (1) (49 total patients) ASTELIN® (azelastine hydrochloride (HCl)) plus placebo saline nasal spray 2 sprays per nostril, 15 minutes apart, twice daily (AM & PM); (2) (50 total patients) FLONASE® (fluticasone propionate) plus placebo saline nasal spray, 2 sprays per nostril, 15 minutes apart, once daily (AM) and two sessions of placebo saline nasal spray, 2 sprays per nostril, 15 minutes apart (PM); or (3) (52 total patients) the co-administration of ASTELIN® (azelastine hydrochloride (HCl)) 2 sprays per nostril plus FLONASE® (fluticasone propionate) 2 sprays per nostril (AM), 15 minutes apart, and ASTELIN® (azelastine hydrochloride (HCl)) 2 sprays per nostril plus placebo saline nasal spray, 15 minutes apart, (PM) for a 2-week double-blind treatment period.
The primary efficacy variable was the change from baseline in the Total Nasal Symptom Score (TNSS), which comprised sneezing, itchy nose, runny nose, and nasal congestion (individual symptoms scores were assigned a value between 0 and 3, where 0=no symptoms and 3=severe symptoms). This study was not statistically designed to assess the differences between ASTELIN® and FLONASE®.
The results of the clinical trial are summarized and presented in Appendix A hereinbelow and in FIGS. 1-6. […] FIGS. 2-5 show the mean improvement in severity score (0-3 scale) from baseline for the symptoms of runny nose, itchy nose, sneezing and congestion, respectively.

In the case of `CN1CCCC(n2nc(Cc3ccc(Cl)cc3)c3ccccc3c2=O)CC1` (racemic) [Azelastine, (±)-1-(2H)-phthalazinone, 4-[(4-chlorophenyl)methyl]-2-(hexahydro-1-methyl-1H-azepin-4-yl)-, mono-hydrochloride], the “Change from Baseline in AM and PM Combined Nasal Symptom Score: Congestion, LS Mean” value (Day 2) is reported as −0.73, the “Change from Baseline in AM and PM Combined Nasal Symptom Score: Congestion, Mean” value (Day 2) is reported as −0.78 and the “Change from Baseline in AM and PM Combined Nasal Symptom Score: Congestion, Median” value (Day 2) is reported as −0.17. The “Change from Baseline in AM and PM Combined Nasal Symptom Score: Itchy Nose, LS Mean” value (Day 2) was −0.58, the “Change from Baseline in AM and PM Combined Nasal Symptom Score: Itchy Nose, Mean” value (Day 2) was −0.61 and the “Change from Baseline in AM and PM Combined Nasal Symptom Score: Itchy Nose, Median” value (Day 2) was −0.50. For the same compound, the “Change from Baseline in AM and PM Combined Nasal Symptom Score: Runny Nose, LS Mean” value (Day 2) was −0.70, the “Change from Baseline in AM and PM Combined Nasal Symptom Score: Runny Nose, Mean” value (Day 2) was −0.72 and the “Change from Baseline in AM and PM Combined Nasal Symptom Score: Runny Nose, Median” value (Day 2) was −0.42. For the same compound, the “Change from Baseline in AM and PM Combined Nasal Symptom Score: Sneezing, LS Mean” value (Day 2) was −1.09, the “Change from Baseline in AM and PM Combined Nasal Symptom Score: Sneezing, Mean” value (Day 2) was −1.11 and the “Change from Baseline in AM and PM Combined Nasal Symptom Score: Sneezing, Median” value (Day 2) was −0.90. The “Percent Change from Baseline in AM and PM Combined Nasal Symptom Score: Congestion, LS Mean” value (shortened to “Percent Change … Congestion, LS Mean”) (Day 2) was −13.19%, the “Percent Change from Baseline in AM and PM Combined Nasal Symptom Score: Congestion, Mean” value (“Percent Change from Baseline … Congestion, Mean” below) (Day 2) was −14.05% and the “Percent Change from Baseline in AM and PM Combined Nasal Symptom Score: Congestion, Median” value (“Percent Change … Congestion, Median” for short) (Day 2) was −3.23%. The “Percent Change from Baseline in AM and PM Combined Nasal Symptom Score: Itchy Nose, LS Mean” value (from here on “Percent Change … Itchy Nose, LS Mean”) (Day 2) was −13.14%, the “Percent Change from Baseline in AM and PM Combined Nasal Symptom Score: Itchy Nose, Mean” value (shortened to “Percent Change from Baseline … Itchy Nose, Mean”) (Day 2) was −13.55% and the “Percent Change from Baseline in AM and PM Combined Nasal Symptom Score: Itchy Nose, Median” value (shortened to “Percent Change … Itchy Nose, Median”) (Day 2) was −11.11%. The “Percent Change from Baseline in AM and PM Combined Nasal Symptom Score: Runny Nose, LS Mean” value (shortened to “Percent Change … Runny Nose, LS Mean”) (Day 2) was −13.68%, the “Percent Change from Baseline in AM and PM Combined Nasal Symptom Score: Runny Nose, Mean” value (“Percent Change from Baseline … Runny Nose, Mean” below) (Day 2) was −14.08% and the “Percent Change from Baseline in AM and PM Combined Nasal Symptom Score: Runny Nose, Median” value (“Percent Change … Runny Nose, Median” for short) (Day 2) was −7.98%. For the same compound, the “Percent Change from Baseline in AM and PM Combined Nasal Symptom Score: Sneezing, LS Mean” value (from here on “Percent Change from Baseline … Sneezing, LS Mean”) (Day 2) was −26.72%, the “Percent Change from Baseline in AM and PM Combined Nasal Symptom Score: Sneezing, Mean” value (shortened to “Percent Change from Baseline … Sneezing, Mean”) (Day 2) was −26.94% and the “Percent Change from Baseline in AM and PM Combined Nasal Symptom Score: Sneezing, Median” value (“Percent Change from Baseline … Sneezing, Median” for short) (Day 2) was −21.05%. For the same compound, the “Change from Baseline in AM and PM Combined Nasal Symptom Score: Congestion, LS Mean” value (Day 3) was −0.62, the “Change from Baseline in AM and PM Combined Nasal Symptom Score: Congestion, Mean” value (Day 3) was −0.68 and the “Change from Baseline in AM and PM Combined Nasal Symptom Score: Congestion, Median” value (Day 3) was 0.00. For the same compound, the “Change from Baseline in AM and PM Combined Nasal Symptom Score: Itchy Nose, LS Mean” value (Day 3) was −0.85, the “Change from Baseline in AM and PM Combined Nasal Symptom Score: Itchy Nose, Mean” value (Day 3) was −0.84 and the “Change from Baseline in AM and PM Combined Nasal Symptom Score: Itchy Nose, Median” value (Day 3) was −0.75. The “Change from Baseline in AM and PM Combined Nasal Symptom Score: Runny Nose, LS Mean” value (Day 3) was −0.74, the “Change from Baseline in AM and PM Combined Nasal Symptom Score: Runny Nose, Mean” value (Day 3) was −0.79 and the “Change from Baseline in AM and PM Combined Nasal Symptom Score: Runny Nose, Median” value (Day 3) was −1.00. For the same compound, the “Change from Baseline in AM and PM Combined Nasal Symptom Score: Sneezing, LS Mean” value (Day 3) was −0.99, the “Change from Baseline in AM and PM Combined Nasal Symptom Score: Sneezing, Mean” value (Day 3) was −0.97 and the “Change from Baseline in AM and PM Combined Nasal Symptom Score: Sneezing, Median” value (Day 3) was −0.77. The “Percent Change … Congestion, LS Mean” value (Day 3) was −10.71%, the “Percent Change from Baseline … Congestion, Mean” value (Day 3) was −11.70% and the “Percent Change … Congestion, Median” value (Day 3) was 0.00%. The “Percent Change … Itchy Nose, LS Mean” value (Day 3) was −19.04%, the “Percent Change from Baseline … Itchy Nose, Mean” value (Day 3) was −18.60% and the “Percent Change … Itchy Nose, Median” value (Day 3) was −16.67%. The “Percent Change … Runny Nose, LS Mean” value (Day 3) was −13.72%, the “Percent Change from Baseline … Runny Nose, Mean” value (Day 3) was −14.69% and the “Percent Change … Runny Nose, Median” value (Day 3) was −16.67%. For the same compound, the “Percent Change from Baseline … Sneezing, LS Mean” value (Day 3) was −23.56%, the “Percent Change from Baseline … Sneezing, Mean” value (Day 3) was −22.81% and the “Percent Change from Baseline … Sneezing, Median” value (Day 3) was −16.08%. The “Change from Baseline in AM and PM Combined Nasal Symptom Score: Congestion, LS Mean” value (Day 4) was −0.78, the “Change from Baseline in AM and PM Combined Nasal Symptom Score: Congestion, Mean” value (Day 4) was −0.82 and the “Change from Baseline in AM and PM Combined Nasal Symptom Score: Congestion, Median” value (Day 4) was −0.92. The “Change from Baseline in AM and PM Combined Nasal Symptom Score: Itchy Nose, LS Mean” value (Day 4) was −1.01, the “Change from Baseline in AM and PM Combined Nasal Symptom Score: Itchy Nose, Mean” value (Day 4) was −1.00 and the “Change from Baseline in AM and PM Combined Nasal Symptom Score: Itchy Nose, Median” value (Day 4) was −0.73. The “Change from Baseline in AM and PM Combined Nasal Symptom Score: Runny Nose, LS Mean” value (Day 4) was −0.76, the “Change from Baseline in AM and PM Combined Nasal Symptom Score: Runny Nose, Mean” value (Day 4) was −0.79 and the “Change from Baseline in AM and PM Combined Nasal Symptom Score: Runny Nose, Median” value (Day 4) was −0.43. For the same compound, the “Change from Baseline in AM and PM Combined Nasal Symptom Score: Sneezing, LS Mean” value (Day 4) was −1.34, the “Change from Baseline in AM and PM Combined Nasal Symptom Score: Sneezing, Mean” value (Day 4) was −1.32 and the “Change from Baseline in AM and PM Combined Nasal Symptom Score: Sneezing, Median” value (Day 4) was −1.00. For the same compound, the “Percent Change … Congestion, LS Mean” value (Day 4) was −13.79%, the “Percent Change from Baseline … Congestion, Mean” value (Day 4) was −14.44% and the “Percent Change … Congestion, Median” value (Day 4) was −16.67%. The “Percent Change … Itchy Nose, LS Mean” value (Day 4) was −22.54%, the “Percent Change from Baseline … Itchy Nose, Mean” value (Day 4) was −22.23% and the “Percent Change … Itchy Nose, Median” value (Day 4) was −13.79%. For the same compound, the “Percent Change … Runny Nose, LS Mean” value (Day 4) was −15.76%, the “Percent Change from Baseline … Runny Nose, Mean” value (Day 4) was −16.23% and the “Percent Change … Runny Nose, Median” value (Day 4) was −7.98%. For the same compound, the “Percent Change from Baseline … Sneezing, LS Mean” value (Day 4) was −32.76%, the “Percent Change from Baseline … Sneezing, Mean” value (Day 4) was −31.90% and the “Percent Change from Baseline … Sneezing, Median” value (Day 4) was −25.00%. For the same compound, the “Change from Baseline in AM and PM Combined Nasal Symptom Score: Congestion, LS Mean” value (Day 5) was −1.02, the “Change from Baseline in AM and PM Combined Nasal Symptom Score: Congestion, Mean” value (Day 5) was −1.07 and the “Change from Baseline in AM and PM Combined Nasal Symptom Score: Congestion, Median” value (Day 5) was −0.90. For the same compound, the “Change from Baseline in AM and PM Combined Nasal Symptom Score: Itchy Nose, LS Mean” value (Day 5) was −1.11, the “Change from Baseline in AM and PM Combined Nasal Symptom Score: Itchy Nose, Mean” value (Day 5) was −1.10 and the “Change from Baseline in AM and PM Combined Nasal Symptom Score: Itchy Nose, Median” value (Day 5) was −0.75. The “Change from Baseline in AM and PM Combined Nasal Symptom Score: Runny Nose, LS Mean” value (Day 5) was −0.96, the “Change from Baseline in AM and PM Combined Nasal Symptom Score: Runny Nose, Mean” value (Day 5) was −0.97 and the “Change from Baseline in AM and PM Combined Nasal Symptom Score: Runny Nose, Median” value (Day 5) was −0.67. The “Change from Baseline in AM and PM Combined Nasal Symptom Score: Sneezing, LS Mean” value (Day 5) was −1.36, the “Change from Baseline in AM and PM Combined Nasal Symptom Score: Sneezing, Mean” value (Day 5) was −1.34 and the “Change from Baseline in AM and PM Combined Nasal Symptom Score: Sneezing, Median” value (Day 5) was −1.03.
